The values that follow come from patent US9358276B2, “Methods of diagnosing and treating small intestinal bacterial overgrowth (SIBO) and SIBO-related conditions” (Cedars-Sinai Medical Center, priority 1999, dated 2016).

Marks after values point to notes of the source that are not given here.

Data set [1] has as its system SIBO-related hyperalgesia. In words: Treatment of SIBO-related hyperalgesia (cases). In kind it is in vivo, human. As for the experimental part: Two adult female subjects with IBS required additional pharmacologic manipulations to treat their SIBO-related hyperalgesia. In the first case, SIBO was eradicated by antibiotic treatment. However, the subject complained of persistent feelings of rectal distension, consistent with residual hyperalgesia related to SIBO. The subjected was then administered Colpermin (peppermint oil) capsules and Elavil (5 mg taken at night) that alleviated their SIBO-related hyperalgesic symptoms, presumably by reducing intestinal wall tension and decreasing mechanoreceptor activation.
The second subject with a diagnosis of IBS was also found to have SIBO, as detected by LBHT. Their SIBO was eradicated by a combined treatment with antibiotic, intestinal lavage with Go-Lytely, and cisapride (10 mg tid) to increase their abnormally low phase III interdigestive motility. After eradication of SIBO, this subject similarly complained of persistent SIBO-related hyperalgesic symptoms of the bowel.

The test system of data set [2] is rapid upper gut transit and diarrhea. Put plainly: Continued pre-meal oleate/oleic acid treatment: diarrhea, stool output, symptoms. The format is in vivo, human. The text has this: Continuing oleic acid treatment at home was offered to Aresponders≅ (i.e., patients who experienced a greater than 100% increase in baseline transit time with 3.2 g oleic acid). Of the 36 responders out of the original 45 patients, 18 provided records of stool volume and frequency on- and off-treatment for comparison. The inconvenient and unappealing nature of stool collection and measurement were the primary reasons reported by responders who chose not to participate in stool collection. After completing a set of three preliminary breath hydrogen tests, each participating responder was asked to refrain from taking oleic acid for two days in order to measure off-treatment stool output for a 24-hour period. Patients were issued a stool pattern record form and a stool collection container with graduated volume markings to record the frequency and volume of bowel movements. After two days without oleic acid, each patient took 3.2 g of oleic acid mixed with 25 mL of Ensure emulsion three times a day, 30 minutes before breakfast, lunch and dinner. After taking oleic acid for two days, patients recorded stool output for another 24-hour period. With this oleic acid emulsion treatment, stool frequency decreased from 6.9±0.8 to 5.4±0.9 bowel movements per 24-hour period (p<0.05), and stool volume decreased from 1829.0±368.6 to 1322.5±256.9 per 24-hour period (p<0.05).
The patient was a person with a history of adolescent-onset, persistent diarrhea. […] They presented with complaints of excessive gas, postprandial bloating, diarrhea and urgency, and 3 to 7 liquid bowel movements per day. Their upper gut transit times were (min) 30 (0 g oleic acid), 117 (1.6 g oleic acid) and 101 (3.2 g oleic acid).

Data set [3] has as its system upper gut transit. In words: Upper gut transit time by lactulose breath hydrogen test after oleate or oleic acid. The format is in vivo, human. To be noted: for upper gut transit time: case, diarrhea-predominant IBS. The text has this: In a preliminary study, five patients with persistent diarrhea for 3 to 22 months, (one each due to vagal denervation, ileal resection for Crohn's disease, and vagotomy and antrectomy, and two due to idiopathic causes) were studied. […] This test relies on the metabolism of certain carbohydrate materials (e.g. lactulose) by the microbial flora within the caecum. By generating gas which can be detected in the expired air, it is possible to make some estimation about the initial arrival of the administered material within the colon.
Each patient received orally in random order, 0, 1.6 or 3.2 g of sodium oleate in 25 mL Ensure (Ross), followed by 100 mL water. Thirty minutes after each dose of oleate, patients received 10 g lactulose orally, followed by 25 mL water. Breath samples were collected in commercially available breath testing bags (Quintron, Menomonee Falls, Wis.) every 10-15 minutes, and the hydrogen content of the samples was measured using a breath analyzer (Microlyzer Model 12, Quintron Instruments, Menomonee Falls, Wis.), calibrated against gas samples of known hydrogen concentration. With a syringe, a 40-mL sample of the expired breath was withdrawn from the collection bag and analyzed immediately for hydrogen concentration (ppm). The hydrogen concentration value from each sample was plotted against time. Upper gut transit time was defined as the time in minutes from ingestion of lactulose (t0) until a rise of H2 of >10 ppm. Data were further analyzed using 1-way repeated measures analysis of variance (ANOVA)(See Table 4).
The effect of an active lipid on transit time was determined in 8 normal human subjects (1 male and 7 females with a mean age of 35±2.6 years [SE]) and 45 patients (20 males and 25 females with a mean age of 49.1±2.5 [SE], age range from 18 to 90 years) with chronic diarrhea (i.e., continuous diarrhea for more than two months) associated with a wide variety of diagnoses and conditions (e.g., Crohn's disease; irritable bowel syndrome; short bowel syndrome; Indiana pouch; AIDS; ulcerative colitis; vagotomy; antrectomy; ileostomy; partial and complete colectomy; colon cancer; diabetes mellitus type 1; pancreatic insufficiency; radiation enteropathy; esophagectomy/gastric pull-up; total and subtotal gastrectomy; gastrojejunostomy), made by referring gastroenterologists. The method was the same as described above, except oleic acid (Penta Manufacturing, Livingston, N.J.) replaced sodium oleate in 50 mL of Ensure emulsion. All subjects refrained from taking antibiotics for at least two weeks before each testing date and during stool measurement periods. Patients were also instructed to refrain from anti-diarrheal drugs, laxatives, somatostatin analogues or anticholinergics for at least 48 hours before each test. In both the normal and patient groups, there was a significant slowing of upper gut transit time in response to oleic acid, as summarized in Table 5 below (p<0.001).

Data set [4] has as its system upper gut transit. The data set is described as above. To be noted: 4 grams of oleic acid. In kind it is in vivo, human.
In the next data set the test system is ileal brake. Conditions: rats, subcutaneous administration; Brown et al. 1993; cited from earlier work.
For a further data set, the system named is intestinal transit. In words: Intestinal transit in multi-fistulated dogs, cumulative % recovery of 99mTc-DTPA. In kind it is in vivo, dog. The text has this:
The experiments described below are based on a previously described chronic multi-fistulated dog model, employing surgically fistulated male or female mongrel dogs weighing about 25 kg each. (Lin, H. C. et al., Inhibition of gastric emptying by glucose depends on length of intestine exposed to nutrient, Am. J. Physiol. 256:G404-G411 [1989]). The small intestines of the dogs were each about 300 cm long from the pylorus to the ileal-cecal valve. The duodenal fistula was situated 15 cm from the pylorus; the mid-gut fistula was situated 160 cm from the pylorus. Occluding Foley catheters (balloon catheters that are inflated to produce a water-tight seal with the lumenal surface) were placed into the distal limb of a duodenal fistula and a mid-gut fistula, fat or other test agents were administered lumenally to the thus compartmentalized Aproximal≅ section of the gut, i.e., between the fistulas, or to the compartmentalized Adistal≅ section of the gut, i.e., beyond the mid-gut fistula. Perfusate was pumped into a test section through the catheter at a rate of 2 mL/minute. Test agents were administered along with buffer perfusate, but some test agents were administered intravenously, where specifically noted.
Intestinal transit measurements were made by tracking the movement of a liquid marker across the approximately 150 cm intestinal test segment by delivering about 20 μCi ^99mTc chelated to diethyltriamine pentaacetic acid (DTPA)(Cunningham, K. M. et al., Use of technicium-99m (V)thiocyanate to measure gastric emptying of fat, J. Nucl. Med. 32:878-881 [1991]) as a bolus into the test segment after 60 minutes of a 90-minute perfusion. The output from the mid-gut fistula was collected every 5 min thereafter for 30 minutes, which period is illustrated in FIGS. 9-23. Using a matched dose of ^99mTc to represent the original radioactivity (Johansson, C., Studies of gastrointestinal interactions, Scand. J. Gastroenterol. 9(Suppl 28):1-60 [1974]; Zierler, K., A simplified explanation of the theory of indicator dilution for measurement of fluid flow and volume and other distributive phenomena, Bull. John Hopkins 103:199-217 [1958]), the radioactivity delivered into the animal as well as the radioactivity of the recovered fistula output were all measured using a gamma well counter. After correcting all counts to time zero, intestinal transit was calculated as the cumulative percent recovery of the delivered ^99mTc-DTPA. This method has been well validated over the years and appreciated for its advantage of minimal inadvertent marker loss. […] There was a very high level of marker recovery, with 90% of the marker recovered by 30 minutes and 98% of the marker recovered by 45 minutes.

Data set [5] deals with SIBO. In words: Case: autism with bowel symptoms, Augmentin. The format is in vivo, human. Conditions: one patient.
For data set [6], the system named is SIBO. In words: Comparison of antibiotic regimes for eradicating SIBO, follow-up lactulose breath hydrogen test (LBHT). In kind it is in vivo, human. Conditions: follow-up LBHT. As for the experimental part: Subjects were tested after an overnight fast. […] Each breath sample was then analyzed for hydrogen content with a gas chromatograph (Quintron Model DP, Quintron Instrument Co., Division of E.F. Brewer Co, Menomonee Falls, Wis. 53051), standardized using a QuinGas standard as instructed by the manufacturer. Hydrogen peaks were plotted before and after an antimicrobial treatment regimen for comparison. The normal range for the second hydrogen peak was 0 to 20 ppm. Subjects referred to the Cedars-Sinai GI Motility Program for a lactulose breath hydrogen test (LBHT) to assess SIBO were entered into a database. Those that tested positive for SIBO were given antibiotic treatment by their referring physician and in some cases, returned for a follow-up LBHT to assess eradication of SIBO. During the follow-up LBHT, subjects were asked which antibiotic they were given to treat their SIBO. The eradication rate of each antibiotic was evaluated. Of the 771 subjects in the database, 561 (73%) tested positive for SIBO. […] (See Table 1 below). […] None of the commonly used antibiotics was universally successful in eradicating overgrowth.

For the compound `CN(C)CCC=C1c2ccccc2CCc2ccccc21` [Elavil, amitriptyline], the SIBO-related hyperalgesic symptoms entry in data set [1] (first subject, Colpermin capsules and Elavil (5 mg at night) together) is recorded as “alleviated”.

`COc1cc(N)c(Cl)cc1C(=O)NC1CCN(CCCOc2ccc(F)cc2)CC1OC` (stereo not drawn) [cisapride]: in data set [1] (second subject, combined antibiotic, lavage with Go-Lytely and cisapride (10 mg tid)), the “eradication of SIBO” value is reported as “eradicated”.

For the compound `CCCCCCCC/C=C\CCCCCCCC(=O)O` [oleic acid], in data set [2] (18 responders, 3.2 g in 25 mL Ensure three times a day, off-treatment 6.9±0.8), the “stool frequency, bowel movements per 24-hour period” value turned out to be 5.4±0.9. For the same compound, the “stool volume per 24-hour period” value in data set [2] (18 responders, on treatment, off-treatment 1829.0±368.6) was 1322.5±256.9. Moreover, the “symptoms of gaseousness, bloating and rectal urgency” value in data set [2] (case, diarrhea-predominant IBS) is on record as “complete relief”. Moreover, the bowel frequency result in data set [2] (case, diarrhea-predominant IBS, continuing treatment) is given as “single, solid bowel movement per day”. The adverse effect reported result in data set [2] (only adverse effect reported by any patient) was “slight and transient burning sensation in the mouth or throat”. Moreover, the “responders (greater than 100% increase in baseline transit time)” value in the data set on upper gut transit [3] (3.2 g oleic acid, out of the original 45 patients) is reported as 36. For the same compound, the “Transit time (mean ± SE)” value with upper gut transit [3] (Normal subjects (8), 1.6 g oleic acid in 50 mL Ensure) stood at 116 ± 11.1 min; in the data set with upper gut transit [3] (Normal subjects (8), 3.2 g oleic acid), 140 ± 11.5 min; in the data set with upper gut transit [3] (Patients with chronic diarrhea (45), 1.6 g oleic acid), 57.2 ± 4.5 min; in the data set on upper gut transit [3] (Patients with chronic diarrhea (45), 3.2 g oleic acid) it was 83.3 ± 5.2 min. In addition, the “upper gut transit time” value is 117 min in the data set with upper gut transit [3] (1.6 g oleic acid) and 101 min in the data set with upper gut transit [3] (3.2 g oleic acid). Also, the mean transit time with upper gut transit [4] (IBD patients (n=18)) turned out to be 114.6 ± 16.0 min; in the data set with upper gut transit [4] (normal subjects (n=5)) it was 136.0 ± 15.4 min.

Consider `Cc1nccn1CC1CCc2c(c3ccccc3n2C)C1=O` (stereo not drawn) [ondansetron], for which the “ileal brake induced by ileal infusion of lipid” value with ileal brake is “abolished the ileal brake”. Besides, in the data set on ileal brake, the “intestinal transit of a baked bean meal” value was “delayed”. In addition, the “Transit Across Proximal Gut (Cumulative % Marker Recovered)” value in the data set on intestinal transit (Buffer + NE + Ond perfused lumenally 0.7 mg/kg/h) is given as 63.0 ± 4.4^b %. For the same compound, the marker recovery in the data set with intestinal transit (IV PYY + ondansetron 0.7 mg/kg/h in proximal gut) was determined as 78.3±4.8%; in the data set on intestinal transit (IV PYY + ondansetron in distal gut), 12.9±12.9%; in the data set with intestinal transit (distal gut 5-HT + ondansetron 0.7 mg/kg bolus in distal gut), 79.5±2.4%; in the data set on intestinal transit (distal gut 5-HT + ondansetron 0.7 mg/kg bolus in proximal gut) it was 73.8±9.5%; in the data set on intestinal transit (ileal brake + 6.25 mg ondansetron bolus, proximal gut), 35.4%; in the data set with intestinal transit (ileal brake + 12.5 mg ondansetron bolus, proximal gut) it was 55.8%. Further, the marker recovery in the data set with intestinal transit (ileal brake + 25 mg ondansetron bolus, proximal gut) was 77.6%; in the data set on intestinal transit (ileal brake + intravenous ondansetron 0.15 mg/kg/1.5 h, n=2), 13±2.0%; in the data set with intestinal transit (ileal brake + lumenal ondansetron 0.7 mg/kg/h in proximal gut, n=2), 78±2.4%; with intestinal transit (ileal brake + ondansetron in distal gut, n=4), 22.8±2.6%; in the data set on intestinal transit (ileal brake + ondansetron in proximal gut, n=4), 68.5±2.7%; in the data set with intestinal transit (intravenous norepinephrine + ondansetron 0.7 mg/kg/h in proximal gut), 63.4%. Moreover, the marker recovery in the data set on intestinal transit (lumenal buffer + lumenal ondansetron, Buffer-NS 96.0±4.0%) amounted to 57.9±15.9%; in the data set with intestinal transit (lumenal oleate + lumenal ondansetron 0.7 mg/kg bolus, proximal gut), 73.7±10.6%.

On to Augmentin, for which the concentration and behavior entry in the data set on SIBO [5] is “some positive concentration and behavioral changes”. Further, the bowel habits entry in the data set with SIBO [5] (500 mg twice a day for ten days) is recorded as “substantial improvement”. The “% Patients with SIBO Eradicated” value with SIBO [6] came out at 50%.
